Measurements published in ChEMBL document CHEMBL5303304, “EUbOPEN Chemogenomics Library - IncuCyte” (2023).

What was measured:
Type in all cases: toxicity, cell-based
[1] = system: Fibroblast; assay: Incucyte cell viability with human fibroblast; details: 10 µM, compound concentration 10 uM
[2] = system: U2OS; assay: Incucyte cell viability with U2OS; details: human, 10 µM, compound concentration 10 uM
[3] = system: HEK-293T; assay: Incucyte cell viability with HEK293T; details: human, 10 µM, compound concentration 10 uM
Further: unitless GR value; below 1 slowed growth and below 0 cell loss.

c1ccc2c(c1)SCc1c-2[nH]c2ccccc12
Growth Rate ([1]; 0 h, replicate number 1): -1
Growth Rate ([1]; 6 h, replicate number 1): -0.99
Growth Rate ([1]; 6 h, replicate number 2): -1
Growth Rate ([1]; 12 h, replicate number 1): -0.96
Growth Rate ([1]; 12 h, replicate number 2): -0.98
Growth Rate ([1]; 18 h, replicate number 1): -0.86
Growth Rate ([1]; 18 h, replicate number 2): -0.94
Growth Rate ([1]; 24 h, replicate number 1): -0.75
Growth Rate ([1]; 24 h, replicate number 2): -0.84
Growth Rate ([2]; 0 h, replicate number 1): -0.33
Growth Rate ([2]; 6 h, replicate number 1): -0.4
Growth Rate ([2]; 6 h, replicate number 2): -0.66
Growth Rate ([2]; 12 h, replicate number 1): -0.65
Growth Rate ([2]; 12 h, replicate number 2): -0.52
Growth Rate ([2]; 18 h, replicate number 1): -0.63
Growth Rate ([2]; 18 h, replicate number 2): -0.49
Growth Rate ([2]; 24 h, replicate number 1): -0.5
Growth Rate ([2]; 24 h, replicate number 2): -0.42
Growth Rate ([3]; 6 h, replicate number 1): -0.95
Growth Rate ([3]; 6 h, replicate number 2): -0.96
Growth Rate ([3]; 12 h, replicate number 1): -0.76
Growth Rate ([3]; 12 h, replicate number 2): -0.7
Growth Rate ([3]; 18 h, replicate number 1): -0.53
Growth Rate ([3]; 18 h, replicate number 2): -0.49
Growth Rate ([3]; 24 h, replicate number 1): -0.37
Growth Rate ([3]; 24 h, replicate number 2): -0.38

COc1ncc2cc(C(=O)Nc3cc(C(=O)NCc4cccc(Cl)c4)ccc3Cl)c(=O)[nH]c2n1
Growth Rate ([1]; 0 h, replicate number 2): 0.35
Growth Rate ([1]; 6 h, replicate number 2): -0.4
Growth Rate ([1]; 12 h, replicate number 1): -0.98
Growth Rate ([1]; 12 h, replicate number 2): 0.79
Growth Rate ([1]; 18 h, replicate number 1): -0.46
Growth Rate ([1]; 24 h, replicate number 1): 0.44
Growth Rate ([1]; 24 h, replicate number 2): 0.92
Growth Rate ([2]; 6 h, replicate number 2): 0.67
Growth Rate ([2]; 18 h, replicate number 2): 0.97
Growth Rate ([2]; 24 h, replicate number 2): 0.97
Growth Rate ([3]; 6 h, replicate number 1): 0.22
Growth Rate ([3]; 6 h, replicate number 2): -0.03
Growth Rate ([3]; 12 h, replicate number 1): 0.64
Growth Rate ([3]; 12 h, replicate number 2): 0.55
Growth Rate ([3]; 18 h, replicate number 1): 0.51
Growth Rate ([3]; 18 h, replicate number 2): 0.64
Growth Rate ([3]; 24 h, replicate number 1): 0.67
Growth Rate ([3]; 24 h, replicate number 2): 0.79

Cc1ccc(NC(=O)c2ccc3c(c2)OCCO3)cc1NC(=O)c1ccc2nc(OCCN3CCCC3)ccc2c1
Growth Rate ([1]; 0 h, replicate number 2): -0.85
Growth Rate ([1]; 6 h, replicate number 1): -0.21
Growth Rate ([1]; 6 h, replicate number 2): -0.58
Growth Rate ([1]; 12 h, replicate number 1): -0.3
Growth Rate ([1]; 12 h, replicate number 2): -0.27
Growth Rate ([1]; 18 h, replicate number 1): -0.2
Growth Rate ([1]; 18 h, replicate number 2): -0.22
Growth Rate ([1]; 24 h, replicate number 1): -0.09
Growth Rate ([1]; 24 h, replicate number 2): -0.05
Growth Rate ([2]; 0 h, replicate number 1): 0.21
Growth Rate ([2]; 6 h, replicate number 1): 0.15
Growth Rate ([2]; 6 h, replicate number 2): 0.35
Growth Rate ([2]; 12 h, replicate number 1): -0.04
Growth Rate ([2]; 12 h, replicate number 2): 0.05
Growth Rate ([2]; 18 h, replicate number 1): -0.16
Growth Rate ([2]; 18 h, replicate number 2): -0.04
Growth Rate ([2]; 24 h, replicate number 1): -0.12
Growth Rate ([2]; 24 h, replicate number 2): -0.01
Growth Rate ([3]; 6 h, replicate number 1): -0.91
Growth Rate ([3]; 6 h, replicate number 2): -0.96
Growth Rate ([3]; 12 h, replicate number 1): -0.78
Growth Rate ([3]; 12 h, replicate number 2): -0.81
Growth Rate ([3]; 18 h, replicate number 1): -0.56
Growth Rate ([3]; 18 h, replicate number 2): -0.61
Growth Rate ([3]; 24 h, replicate number 1): -0.43
Growth Rate ([3]; 24 h, replicate number 2): -0.45

Cc1cc(Cn2c(N3CC4(CNC4)C3)nc3c(N4CCN(C)CC4)cc(Cl)cc32)cc(C)c1F
Growth Rate ([1]; 0 h, replicate number 1): -1
Growth Rate ([1]; 6 h, replicate number 2): -1
Growth Rate ([1]; 12 h, replicate number 1): -0.99
Growth Rate ([1]; 12 h, replicate number 2): -1
Growth Rate ([1]; 18 h, replicate number 1): -0.95
Growth Rate ([1]; 18 h, replicate number 2): -0.98
Growth Rate ([1]; 24 h, replicate number 1): -0.88
Growth Rate ([1]; 24 h, replicate number 2): -0.93
Growth Rate ([2]; 0 h, replicate number 1): -1
Growth Rate ([2]; 6 h, replicate number 1): -0.98
Growth Rate ([2]; 6 h, replicate number 2): -0.99
Growth Rate ([2]; 12 h, replicate number 1): -0.97
Growth Rate ([2]; 12 h, replicate number 2): -0.92
Growth Rate ([2]; 18 h, replicate number 1): -0.92
Growth Rate ([2]; 18 h, replicate number 2): -0.84
Growth Rate ([2]; 24 h, replicate number 1): -0.79
Growth Rate ([2]; 24 h, replicate number 2): -0.77
Growth Rate ([3]; 6 h, replicate number 1): -0.99
Growth Rate ([3]; 6 h, replicate number 2): -1
Growth Rate ([3]; 12 h, replicate number 1): -0.88
Growth Rate ([3]; 12 h, replicate number 2): -0.92
Growth Rate ([3]; 18 h, replicate number 1): -0.67
Growth Rate ([3]; 18 h, replicate number 2): -0.74
Growth Rate ([3]; 24 h, replicate number 1): -0.51
Growth Rate ([3]; 24 h, replicate number 2): -0.56
